Reference: patent publication US20210283111A1, “Methods of Inhibiting Osteoclastogenesis and Osteoclast Activity” (vTv Therapeutics LLC, priority 2018, published 2021)
Entries after “also recorded” stand apart in the source; their conditions may differ.

Key:
[1] = test system: RANKL-mediated osteoclastogenesis in RAW264.7 cells; assay: Osteoclastogenesis assay: TRAP staining of RANKL-stimulated RAW264.7 cells; assay type: cell-based, Mouse; details: for No. of TRAP-positive multinucleated cells (Cells/Well): RANKL 100 ng/mL + compound 400 nM, 4 days, Control 0.00, RANKL alone 140.00; for effect on number of TRAP-positive multinucleated cells / RANKL-mediated osteoclastogenesis: RANKL 100 ng/mL, compound 400 nM
Experimental: Cells were plated on 96-well plates (RAW264.7 cells: 10^3 cells/well) in triplicate in the presence or absence of recombinant RANKL (100 ng/ml) with or without the test compounds. After 4 days culture, cells were stained for tartrate-resistant acid phosphatase (TRAP) using an acid phosphatase kit (Sigma-Aldrich, St. Louis, Mo.). Dark red multinucleated cells (>3 nuclei) were counted as TRAP-positive multinucleated cells.

[2] = test system: RANKL-stimulated RAW264.7 cells; assay: Resorption assay on bone resorption assay plate (calcium phosphate substrate); assay type: cell-based, Mouse; details: for Ave of Resorbed Area per Filed (%): RANKL 100 ng/mL + compound 400 nM, 7 days, Control 0.00, RANKL alone 1.14; for effect on resorption areas: RANKL + compound 400 nM
Experimental: RAW264.7 cells were plated on synthesized calcium phosphate substrate (bone resorption assay plate; PG Research, Tokyo, Japan) and stimulated with RANKL in the presence or absence of test compounds. After 7 days of cultivation, cells were removed with bleach, and the calcium phosphate substrate was washed with distilled water and then dried. Photographs were taken, and the average of the resorbed area per field was calculated from 12 images of each sample, using ImageJ software (National Institutes of Health, Bethesda).

[3] = test system: osteoclast marker genes (Atp6v0d2, Trap, Mmp9, Cathepsin K, Dcstamp, and Oscar) in RANKL-stimulated RAW 264.7 cells; assay: Real-time RT-PCR of osteoclast marker gene expression; assay type: cell-based, Mouse; details: RAW264.7 cells, RANKL + compound 400 nM; for Dcstamp Fold Change from Control (Ave) / ATP6vd2 Fold Change from Control (Ave) / Cathepsin K Fold Change from Control (Ave) / Oscar Fold Change from Control (Ave) / Mmp9 Fold Change from Control (Ave) / TRAP Fold Change from Control (Ave): 4 days; for Dcstamp Fold Change from Control (Ave): Control 1.00, RANKL alone 4.32; for ATP6vd2 Fold Change from Control (Ave): Control 1.00, RANKL alone 4.69; for Cathepsin K Fold Change from Control (Ave): Control 1.00, RANKL alone 7.83; for Oscar Fold Change from Control (Ave): Control 1.00, RANKL alone 23.88; for Mmp9 Fold Change from Control (Ave): Control 1.00, RANKL alone 42.90; for TRAP Fold Change from Control (Ave): Control 1.00, RANKL alone 132.47
Experimental: (§1) RNA was extracted from RAW264.7 cells using the GenElute mammalian total RNA Miniprep kit (Sigma-Aldrich, St. Louis, Mo.) with on-column genomic DNA digestion according to the manufacturer's instructions. For antioxidant gene expression analysis, RNA was extracted at 1 day after test compound treatment, and the gene expressions of HMOX1 and NQO1 was analyzed. For osteoclast marker gene expression analysis, RNA was extracted at 4 days after RANKL stimulation, and the gene expressions of Atp6v0d2, Cathepsin K, Matrix metalloproteinase 9, Trap, Dcstamp, and Oscar were analyzed. After measurement of the RNA concentration, isolated RNA (500 ng each) was reverse transcribed with iScript cDNA-Supermix (Bio-Rad Laboratories, Hercules, Calif.). Real-time RT-PCR was performed with SsoFast EvaGreen-Supermix (Bio-Rad Laboratories). PCR primers used in the experiments were from PrimerBank and were described in H. Kanzaki, et al. “The Keap1/Nrf2 protein axis plays a role in osteoclast differentiation by regulating intracellular reactive oxygen species signaling,” The Journal of Biological Chemistry 288(32) (2013) 23009-20. Fold changes of gene of interest were calculated by using the […] method with ribosomal protein S18 as reference gene. Data shown are representative of 3 independent experiments performed in triplicate.

[4] = test system: RANKL-triggered intracellular ROS production in RAW264.7 cells; assay: Intracellular ROS detection by flow cytometry (BES-So-AM); assay type: cell-based, Mouse; details: pretreated 1 h, RANKL 6 h
Experimental: Cells were pretreated with or without Compound HPP-4 for 1 h, stimulated with soluble RANKL for 6 h, washed with PBS, and collected. Cells were then incubated with fluorescent superoxide probe (BES-So-AM; Wako Pure Chemical) on ice. After washing, intracellular ROS was detected using an AccuriC6 flow cytometer (BD Biosciences, San Jose, Calif., USA). The viable monocyte/macrophage fraction was gated on a forward scatter/side scatter plot, and ROS levels were monitored in the FL-1 channel. Data shown are representative of 3 independent experiments performed in triplicated.

[5] = test system: LPS-mediated bone destruction in mice calvaria; assay: In vivo bone destruction model (LPS-induced calvarial bone destruction, μCT); parameters: species or system BALB/c mice
Experimental: The animal experimental protocol was reviewed and approved by the Institutional Animal Care and Use committee, Tsurumi University (approval number; 28A030). All animals were treated ethically, and animal experiments were performed in compliance with the Regulations for Animal Experiments and Related Activities at Tsurumi University. The calvarial bone destruction mouse model, induced by repeated LPS injections. Twenty 7-week-old male BALB/c mice (Clea Japan, Tokyo, Japan) were used. Mice were randomly assigned to four groups (n=5 each): a Dimethyl sulfoxide (DMSO)-injected group (control group; 10 μl PBS+2 μl DMSO), a HPP-4-injected group (HPP-4 group; 10 μl PBS+2 μl of Cpd. HPP-4 2 μM), an LPS-induced bone resorption group (LPS group; 10 μl of 1 μg/μl LPS+2 μl DMSO) and an LPS-induced bone resorption and Cpd. HPP-4-injected group (LPS+HPP-4 group; 10 μl of 1 μg/μl LPS+2 μl of HPP-4 2 μM), Injections were performed under anaesthesia with a 30-gauge needle at a point on the midline of the skull located between the eyes on days 1, 3, 5, 7, and 9. On day 11, mice were sacrificed by cervical dislocation and cranial tissue samples were fixed overnight with 4% paraformaldehyde in PBS.
Fixed cranial tissue samples were subsequently scanned with an X-ray microcomputed tomography […] system (inspeXio SMX-225CT; Shimadzu Corp., Kyoto, Japan). After reconstitution, the DICOM files were rendered into three-dimensional images using Pluto software. Percentage of resorbed area, calculated from the ratio of the number of pixels in the resorbed area in the cranial bone to the number of pixels in the total analyzed image of the cranial bone, was calculated with the ImageJ software. The region of interest was set between the fronto-parietal (coronal) suture and parietooccipital (lambdoidal) suture.

[6] = test system: HMOX1 and NQO1 in RAW264.7 cells; assay: Real-time RT-PCR of antioxidant gene expression; assay type: cell-based, Mouse; details: 400 nM
Experimental: as §1

With `COCCNC(=O)c1cnc2c(c1)nc(Nc1nc3ccc(OC(F)(F)F)cc3s1)n2C` [HPP-1, 3-Methyl-2-(6-trifluoromethoxy-benzothiazol-2-ylamino)-3H-imidazo[4,5-b]pyridine-6-carboxylic acid (2-methoxy-ethyl)-amide] the “No. of TRAP-positive multinucleated cells (Cells/Well)” value [1] was 139.33 Cells/Well, the “effect on number of TRAP-positive multinucleated cells / RANKL-mediated osteoclastogenesis” value [1] was “no effect” and the “Ave of Resorbed Area per Filed (%)” value [2] was 1.21%. For the same compound, the “RANKL-mediated upregulation of osteoclast marker genes” value (“RANKL-mediated upregulation” for short) [3] was “weak suppression”, the “difference from RANKL alone in Atp6v0d2, Mmp9, and Oscar expression” value [3] was “no significant differences” and the “Dcstamp Fold Change from Control (Ave)” value [3] was 3.33 Fold Change from Control. For the same compound, the “ATP6vd2 Fold Change from Control (Ave)” value [3] was 3.52 Fold Change from Control, the “Cathepsin K Fold Change from Control (Ave)” value (from here on “Cathepsin K Fold Change”) [3] was 5.96 Fold Change from Control and the “Oscar Fold Change from Control (Ave)” value [3] was 20.22 Fold Change from Control. The “Mmp9 Fold Change from Control (Ave)” value [3] was 39.73 Fold Change from Control and the “TRAP Fold Change from Control (Ave)” value [3] was 106.62 Fold Change from Control.

`CN(C)C(=O)CNC(=O)c1ccc2c(c1)nc(Nc1nc3ccc(C(F)(F)F)cc3s1)n2C` [HPP-2, 1-Methyl-2-(6-trifluoromethyl-benzothiazol-2-ylamino)-1H-benzimidazole-5-carboxylic acid dimethylcarbamoylmethyl-amide] was tested, and the “No. of TRAP-positive multinucleated cells (Cells/Well)” value [1] was 97.67 Cells/Well, the “effect on number of TRAP-positive multinucleated cells / RANKL-mediated osteoclastogenesis” value [1] was “no effect” and the “Ave of Resorbed Area per Filed (%)” value [2] was 0.78%. The “RANKL-mediated upregulation” value [3] was “suppressed”, the “Dcstamp Fold Change from Control (Ave)” value [3] was 2.55 Fold Change from Control and the “ATP6vd2 Fold Change from Control (Ave)” value [3] was 3.09 Fold Change from Control. For the same compound, the “Cathepsin K Fold Change” value [3] was 4.42 Fold Change from Control, the “Oscar Fold Change from Control (Ave)” value [3] was 10.03 Fold Change from Control and the “Mmp9 Fold Change from Control (Ave)” value [3] was 24.02 Fold Change from Control. The “TRAP Fold Change from Control (Ave)” value [3] was 73.81 Fold Change from Control.

With `C[C@H](O)CNC(=O)c1ccc2c(c1)nc(Nc1nc3ccc(OC(F)(F)F)cc3s1)n2C` [HPP-3, 1-Methyl-2-(6-trifluoromethoxy-benzothiazol-2-ylamino)-1H-benzoimidazole-5-carboxylic acid ((S)-2-hydroxy-propyl)-amide] the “No. of TRAP-positive multinucleated cells (Cells/Well)” value [1] was 65.00 Cells/Well, the “effect on number of TRAP-positive multinucleated cells / RANKL-mediated osteoclastogenesis” value [1] was “decreased” and the “Ave of Resorbed Area per Filed (%)” value [2] was 0.22%. The “effect on resorption areas” value [2] was “reduced the resorption areas such that there was no significant difference from control”, the “RANKL-mediated upregulation” value [3] was “suppressed” and the “Dcstamp Fold Change from Control (Ave)” value [3] was 2.14 Fold Change from Control. The “ATP6vd2 Fold Change from Control (Ave)” value [3] was 2.36 Fold Change from Control, the “Cathepsin K Fold Change” value [3] was 3.31 Fold Change from Control and the “Oscar Fold Change from Control (Ave)” value [3] was 6.45 Fold Change from Control. The “Mmp9 Fold Change from Control (Ave)” value [3] was 23.89 Fold Change from Control and the “TRAP Fold Change from Control (Ave)” value [3] was 59.23 Fold Change from Control.

With `Cn1c(Nc2nc3ccc(C(F)(F)F)cc3s2)nc2cc(C(=O)NCCOCCO)ccc21` [HPP-4, 1-Methyl-2-(6-trifluoromethyl-benzothiazol-2-ylamino)-1H-benzoimidazole-5-carboxylic acid [2-(2-hydroxy-ethoxy)-ethyl]-amide] the “RANKL-mediated increase in intracellular ROS (superoxide)” value [4] was “inhibited”, the “No. of TRAP-positive multinucleated cells (Cells/Well)” value [1] was 29.00 Cells/Well and the “effect on number of TRAP-positive multinucleated cells / RANKL-mediated osteoclastogenesis” value [1] was “decreased the number of TPAP-positive multinucleated cells to that of control”. The “Ave of Resorbed Area per Filed (%)” value [2] was 0.23%, the “effect on resorption areas” value [2] was “reduced the resorption areas such that there was no significant difference from control” and the “LPS-mediated bone destruction” value ([5]; local injection of HPP-4, μCT) was “ameliorated LPS-induced bone destruction; also recorded: significantly inhibited LPS-mediated bone destruction”. For the same compound, the “Percent Resorbed (%), HPP-4 alone” value ([5]; local injection of HPP-4 without LPS on days 1, 3, 5, 7, 9, μCT day 11, Control 0.15) was 0.42%, the “Percent Resorbed (%), LPS + HPP-4” value ([5]; local injection of LPS + HPP-4 on days 1, 3, 5, 7, 9, μCT day 11, Control 0.15, LPS alone 4.27) was 1.84% and the “RANKL-mediated upregulation” value [3] was “suppressed”. The “Dcstamp Fold Change from Control (Ave)” value [3] was 2.39 Fold Change from Control, the “ATP6vd2 Fold Change from Control (Ave)” value [3] was 2.59 Fold Change from Control and the “Cathepsin K Fold Change” value [3] was 2.99 Fold Change from Control. The “Oscar Fold Change from Control (Ave)” value [3] was 8.18 Fold Change from Control, the “Mmp9 Fold Change from Control (Ave)” value [3] was 20.21 Fold Change from Control and the “TRAP Fold Change from Control (Ave)” value [3] was 59.76 Fold Change from Control. For the same compound, the “HMOX1 Fold Change from Control (Ave)” value ([6]; 1 day, Control 1.00) was 1.62 Fold Change from Control, the “NQO1 Fold Change from Control (Ave)” value ([6]; 1 day, Control 1.00) was 2.67 Fold Change from Control and the “expression of antioxidant enzymes NQO1 and HMOX1” value ([6]; p<0.05 relative to control) was “increased”.
